The source made the active and inactive calls. The calls are words filed in the database; no cut-off is given here.
Key:
Escherichia coli [1] = assay: Induction of Escherichia coli DNA gyrase-mediated pBR322 DNA cleavage at 5 to 20 uM after 30 mins by agarose gel electrophoresis
Escherichia coli [2] = assay: Stabilization of reversible Escherichia coli DNA gyrase-pBR322 DNA complex at 20 uM after 15 mins by AFM image analysis

Q: With `CCn1cc(C(=O)O)c(=O)c2cc(F)c(N3CCNCC3)cc21` as the compound, how does the Activity (Escherichia coli [1]) read?
A: The Activity was “Active”.

Q: And the Activity (Escherichia coli [2])?
A: Its Activity is “Active”.
